Measurements taken from patent US12479816B2, “20-HETE formation inhibitors” (UNIVERSITY OF PITTSBURGH—OF THE COMMONWEALTH SYSTEM OF …, priority 2019, dated 2025).
Like-named read-outs stand apart in the source and are kept apart here.

Experiments:
[1] = Turbidometric solubility determination; format: physicochemical; conditions: PBS with 1% DMSO, aqueous buffer, kinetic from dmso stock, room temperature
Outline: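 Precipitation was detected as a significant rise in absorbance at 620 nm over background, and this point set the maximum solubility. Compound was tested in PBS with 1% DMSO at final concentrations from 0 to 600 μM, in triplicate, after 2 h of shaking at room temperature.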

MDR1 (P-gp) = assay: BBB penetration potential, MDR1-MDCK permeability; format: in vitro ADME; conditions: dog; for Papp A→B at 120 min, 5 μM: apical to basolateral, pH 7.4, read-out: BBB penetration potential MDCK A-B 10−6 cm/s; for Papp B→A at 120 min, 5 μM: basolateral to apical, pH 7.4, read-out: BBB penetration potential MDCK B-A 10−6 cm/s
Description: BBB penetration potential assessment data in Table 1 was obtained as follows. MDR1-MDCK cell monolayers were grown to confluence on collagen-coated, microporous membranes in 12-well assay plates. Atenolol, propranolol and digoxin were used as control to assess plate quality. The permeability assay buffer was Hanks' balanced salt solution containing 10 mM HEPES and 15 mM glucose at a pH of 7.4. The buffer in the receiver chamber also contained 1% bovine serum albumin. The dosing solution concentration was 5 μM of test article in the assay buffer. Cell monolayers were dosed on the apical side (A-to-B) or basolateral side (B-to-A) and incubated at 37° C. with 5% CO2 in a humidified incubator. Samples were taken from the donor and receiver chambers at 120 minutes. Each determination was performed in duplicate the flux of lucifer yellow was also measured post-experimentally for each monolayer to ensure no damage was inflicted to the cell monolayers during the flux period. All samples were assayed by LC-MS/MS using electrospray ionization using a PE SCIEX API 4000 spectrometer and total run time of 1 min. Analytical method/conditions were: Liquid Chromatography Column: Waters ACQUITY UPLC BEH Phenyl 30×2.1 mm, 1.7 m; M.P. Buffer: 25 mM ammonium formate buffer, pH 3.5; Aqueous Reservoir (A): 90% water, 10% buffer; Organic Reservoir (B): 90% acetonitrile, 10% buffer; Flow Rate: 0.7 mL/minute; gradient program: 99% A (t=0 min), 1% A (t=0.65 min), 1% A (t=0.75 min), 99% A (t=0.8 min), 99% A (t=1 min); 5 μL injection volume
The apparent permeability (Papp) and percent recovery were calculated as follows: Papp=(dCr/dt)×Vr/(A×CA) (1) Percent Recovery=100×((Vr×Cr^final)+(Vd×Cd^final))/(Vd×CN) (2)
wherein: • dCr/dt is the slope of the cumulative concentration in the receiver compartment versus time in μMs^−1; • Vr is the volume of the receiver compartment in cm^3; • Vd is the volume of the donor compartment in cm^3; • A is the area of the insert (1.13 cm^2 for 12-well); • CA is the average of the nominal dosing concentration and the measured 120 minute donor concentration in μM; • CN is the nominal concentration of the dosing solution in μM; • Cr^final is the cumulative receiver concentration in μM at the end of the incubation period; • Cd^final is the concentration of the donor in μM at the end of the incubation period. Efflux ratio (ER) is defined as Papp (B-to-A)/Papp (A-to-B) Interpretation Brain Penetration Potential Classification: • Papp (A-to-B)≥3.0 and ER<3.0: High • Papp (A-to-B)≥3.0 and 10>ER≥3.0: Moderate • Papp (A-to-B)≥3.0 and ER≥10, or Papp (A-to-B)<3.0 Low

Q: With `c1ccc(C2CCN(c3cn[nH]c3)CC2)cc1` [Compound 1, 4-Phenyl-1-(1H-pyrazol-4-yl)piperidine] as the compound, how does the solubility at 2 h ([1]; OD620, read-out: Max Solub) read?
A: 121 µM

Q: And the solubility at 2 h ([1]; read-out: Solubility_ug/mL)?
A: 28 µg/mL

Q: With `c1ccc(CC2CCN(c3cn[nH]c3)CC2)cc1` [Compound 3, 4-Benzyl-1-(1H-pyrazol-4-yl)piperidine] as the compound, how does the Papp A→B at 120 min, 5 μM (MDR1 (P-gp)) read?
A: 62 ×10⁻⁶ cm/s

Q: What about the Papp B→A at 120 min, 5 μM (MDR1 (P-gp)) of the same compound?
A: 60 ×10⁻⁶ cm/s

Q: What about the solubility at 2 h ([1]; OD620, read-out: Max Solub) of the same compound?
A: 505 µM

Q: What about the solubility at 2 h ([1]; read-out: Solubility_ug/mL) of the same compound?
A: 122 µg/mL

Q: For `COc1ccc(C2CCN(c3ccn[nH]3)CC2)cc1` [Compound 19, 4-(4-Methoxyphenyl)-1-(1H-pyrazol-5-yl)piperidine], which solubility at 2 h ([1]; OD620, read-out: Max Solub) is on record?
A: 106 µM

Q: What about the solubility at 2 h ([1]; read-out: Solubility_ug/mL) of the same compound?
A: 27.3 µg/mL

Q: Which results are given for `COc1ccc(C2CCN(c3cn[nH]c3)CC2)cc1` [Compound 20, 4-(4-Methoxyphenyl)-1-(1H-pyrazol-4-yl)piperidine]?
A: Papp A→B at 120 min, 5 μM (MDR1 (P-gp)): 32 ×10⁻⁶ cm/s; Papp B→A at 120 min, 5 μM (MDR1 (P-gp)): 25.7 ×10⁻⁶ cm/s; solubility at 2 h ([1]; OD620, read-out: Max Solub): 35 µM; solubility at 2 h ([1]; read-out: Solubility_ug/mL): 9 µg/mL

Q: With `CC(=O)N(C)c1ccc(C2CCN(c3cn[nH]c3)CC2)cc1` [Compound 28, N-(4-(1-(1H-Pyrazol-4-yl)piperidin-4-yl)phenyl)-N-methylacetamide] as the compound, how does the Papp A→B at 120 min, 5 μM (MDR1 (P-gp)) read?
A: 18.4 ×10⁻⁶ cm/s

Q: And the Papp B→A at 120 min, 5 μM (MDR1 (P-gp))?
A: 40.2 ×10⁻⁶ cm/s

Q: And the solubility at 2 h ([1]; OD620, read-out: Max Solub)?
A: > 600 µM

Q: And the solubility at 2 h ([1]; read-out: Solubility_ug/mL)?
A: 179 µg/mL

Q: Which Papp A→B at 120 min, 5 μM (MDR1 (P-gp)) does the source give for `Cc1cccc(C2CCN(c3cn[nH]c3)CC2)c1` [Compound 34, 1-(1H-Pyrazol-4-yl)-4-(m-tolyl)piperidine] here?
A: 60.1 ×10⁻⁶ cm/s

Q: What about the Papp B→A at 120 min, 5 μM (MDR1 (P-gp)) of the same compound?
A: 48.6 ×10⁻⁶ cm/s

Q: What about the solubility at 2 h ([1]; OD620, read-out: Max Solub) of the same compound?
A: > 600 µM

Q: What about the solubility at 2 h ([1]; read-out: Solubility_ug/mL) of the same compound?
A: 145 µg/mL

Q: For `c1ccc(C2CCN(c3ccn[nH]3)CC2)cc1` [Compound 54, 4-Phenyl-1-(1H-pyrazol-5-yl)piperidine], which solubility at 2 h ([1]; OD620, read-out: Max Solub) is on record?
A: > 600 µM

Q: And the solubility at 2 h ([1]; read-out: Solubility_ug/mL)?
A: 137 µg/mL

Q: For `O=C1CCCN1Cc1ccc(C2CCN(c3cn[nH]c3)CC2)cc1` [Compound 83, 1-(4-(1-(1H-Pyrazol-4-yl)piperidin-4-yl)benzyl)pyrrolidin-2-one], which Papp A→B at 120 min, 5 μM (MDR1 (P-gp)) is on record?
A: 5.16 ×10⁻⁶ cm/s

Q: What about the Papp B→A at 120 min, 5 μM (MDR1 (P-gp)) of the same compound?
A: 41.6 ×10⁻⁶ cm/s

Q: And the solubility at 2 h ([1]; OD620, read-out: Max Solub)?
A: > 600 µM

Q: What does the source list for `Clc1ccc(CC2CCN(c3cn[nH]c3)CC2)cc1` [Compound 93, 4-(4-Chlorobenzyl)-1-(1H-pyrazol-4-yl)piperidine]?
A: Papp A→B at 120 min, 5 μM (MDR1 (P-gp)): 44.3 ×10⁻⁶ cm/s; Papp B→A at 120 min, 5 μM (MDR1 (P-gp)): 40 ×10⁻⁶ cm/s; solubility at 2 h ([1]; OD620, read-out: Max Solub): 117 µM

Q: What does the source list for `O=C1CCCN1c1ccc(C2CCN(c3cn[nH]c3)CC2)cc1` [Compound 100, 1-(4-(1-(1H-Pyrazol-4-yl)piperidin-4-yl)phenyl)pyrrolidin-2-one]?
A: Papp A→B at 120 min, 5 μM (MDR1 (P-gp)): 22.2 ×10⁻⁶ cm/s; Papp B→A at 120 min, 5 μM (MDR1 (P-gp)): 46.9 ×10⁻⁶ cm/s; solubility at 2 h ([1]; OD620, read-out: Max Solub): 74 µM
